Test results: patent publication US11834663B2, “Fibrotic treatment” (Monash University, priority 2015, dated 2023)

Legend:
Assay type in all cases: in vivo, mouse
[1] = tested on: isolated hearts from aged WT mice; assay: Ischemic-reperfusion injury in isolated Langendorff hearts from chronically treated aged WT mice
Protocol: (§1) There are 8 different sets of in vivo experiments in this study: • A) Phenotypic characterisation of the heart and blood vessels in global IRAP knockout mice and their WT controls treated for 4 weeks with Angiotensin (Ang) II (800 ng/kg/min; s.c.) where mouse hearts and blood vessels were compared to tissue obtained from young WT and IRAP^−/− mice treated with saline. • B) Prevention of Ang II-induced changes in the cardiovascular system following IRAP inhibitor treatment. In the prevention model, WT mice were treated with Ang II (800 ng/kg/min; s.c.)±the IRAP inhibitor (HFI-419; 500 ng/kg/min for 28 days) or HFI-vehicle (1 DMSO:3 HBC). • C) Phenotypic characterisation of the aged heart, kidney and blood vessels in the global IRAP knockout mice where aged WT and IRAP^−/− mouse hearts, kidneys and blood vessels were compared to tissue obtained from young WT and IRAP^−/− mice. • D) Reversal of the age-induced changes in the cardiovascular system following IRAP inhibitor treatment. In the reversal model, aged WT mice were treated with either saline, IRAP inhibitor (HFI-419 at 500 ng/kg/min; compound 1 at 500 ng/kg/min; compound 2 at 50 ng/kg/min) or HFI-vehicle (1 DMSO: 3 HBC) for 4 weeks. • E) Prevention of ischemic-reperfusion injury in isolated hearts taken from aged global IRAP knockout mice and aged IRAP inhibitor (HFI-419 at 500 ng/kg/min; s.c.) treated WT mice compared to age-matched vehicle-treated (1 DMSO:3 HBC; s.c.) WT controls. • F) Phenotypic characterization of cardiac function using echocardiography in the aged global IRAP knockout mice compared to aged and young WT mice. • G) Phenotypic characterization of liver steatosis in IRAP knockout mice in a high fat diet (HFD) model. • H) Reversal of the salt-induced fibrosis in the liver following IRAP inhibitor treatment.
Mice were injected with heparin (500 IU) 20 min before death by cervical dislocation. The heart was rapidly excised and immersed in ice-cold physiological saline solution (PSS). Under a dissecting microscope, the heart and aortic arch were cleared of loose tissue, the pulmonary vein perforated to permit free perfusion of the heart and the heart was mounted on a Langendorff apparatus (ML870B2, ADInstruments, Bella Vista, NSW, Australia) via a 20 gauge needle. The heart was continuously perfused with pre-warmed PSS containing (mM): NaCl 118; KCl 4.7; NaHCO3 25; glucose 11; KH2PO4 1.2; MgSO4 1.2; CaCl2) 1.2 mM and gassed with O2 95% and CO2 5% (carbogen) at 37° C. Prior to use, the PSS was filtered through a 0.22 μm cellulose acetate filter (Millipore). The heart perfusion chamber was surrounded by thermostatically controlled water jacket system that maintained the temperature at 37° C. A fine, 200 μm cannula was present in the PSS line for drug delivery (1:10 drug dilution and with a time lag of 1 min to the heart). A Millar pressure cathether (Millar instruments Inc.) was introduced into the left ventricle via a puncture at the junction of the left atrium and ventricle, and connected to a Power lab system (ADInstruments). […] Left ventricular developed pressure (LVDP); end diastolic pressure (EDP), heart rate (HR), left ventricular contractility (+dP/dt) and left ventricular relaxation (−dP/dt) and coronary flow were recorded continuously.
Ischemia was induced by halting perfusion of the heart for 40 min. […] Left ventricular developed pressure (LVDP), end diastolic pressure (EDP) and contractility (±dP/dt) were recorded during the 60 min. […]

[2] = tested on: hearts of aged (18-22 month old) WT mice; assay: Reversal of age-induced cardiac fibrosis and inflammation in aged WT mice (histology, immunofluorescence, western blot)
Protocol: as §1
(§2) All mice which underwent surgery were anaesthetized with Isoflurane (Isorrane) (5% induction and 2.5% maintenance) and an incision made in the midscapular region through which osmotic minipumps (Alzet model 2004, Alza Corp) were inserted for subcutaneous drug administration. The incision area was sutured with 6/0 DY silk (Dynek Pty Ltd) and antibiotic powder applied (Cicatrin, Pfizer) followed by intramuscular injection of the analgesic Cartrophen (0.1 ml of a 1.5 mg/ml stock solution; Biopharm Australia). Systolic blood pressure (SBP) was measured fortnightly using non-invasive tail-cuff plethysmography apparatus (MC4000 Blood Pressure Analysis System, Hatteras Instrument Inc) before drug treatment (week 0), at week 2 of treatment and end of treatment (week 4). At the end of drug treatment, body weight of mice was recorded. Mice were anaesthetized using Isoflurane inhalation and killed by cervical dislocation. Organs (heart, aorta, kidneys, brain, blood and tibia) were collected, with heart and aorta being dissected appropriately as described below. All organs were then snap frozen in liquid nitrogen, and stored at −80° C. if they were not used for vascular reactivity studies conducted on the day mice were killed.
To measure collagen deposition, frozen sections of heart, kidney or aorta (all 5 μm thickness) were air dried for 10 minutes and were brought through 3 times xylene (2 minutes each), and 3 times absolute alcohol washes before being rinsed in tap H2O for 30 seconds. Staining with an optimal concentration of picrosirius red (in this instance 0.05% picrosirius red diluted in saturated picric acid) was performed and left for an hour. Sections were then rinsed in water and differentiated in 0.01 M HCl for 2 minutes, followed by dehydration via 3 times absolute alcohol washes. Then, slides were brought through 3 times xylene washes before being cover slipped according to standard histological techniques using DPX as the mounting medium. […]

[3] = tested on: aged WT mice; assay: Systolic blood pressure, body weight and cardiac hypertrophy in aged WT mice after chronic IRAP inhibition
Protocol: as §1, §2
Ventricular weight (VW) was compared to the body weight (BW) as a ratio of VW:BW (mg/g), as well as comparison of VW to tibial length (TL) in as a ratio of VW:TL (mg/mm) respectively. […] The average of 100 cardiomyocytes per heart section was performed under 60× magnification and analyzed using Image J.

[4] = aged WT mice, HFI-419 4 weeks, FIG. 13
[5] = aged WT mice, HFI-419 4 weeks, FIG. 17
[6] = aged WT mice, HFI-419 4 weeks, FIG. 18

In the case of CCOC(=O)C1=C(NC(C)=O)Oc2cc(O)ccc2C1c1cccnc1 (stereo not shown) [HFI-419], the “reduction in infarct area compared to the aged WT control” value ([1]; 40 min ischemia / 60 min reperfusion, aged WT mice treated with HFI-419 for 4 weeks, FIG. 20a) is reported as about 50%, the “recovery of LVDP in the first 10 minutes of reperfusion” value ([1]; aged WT mice, HFI-419 4 weeks) is reported as “did not affect” and the “recovery of LVDP in latter stages of reperfusion” value ([1]; evident from 20 min of reperfusion, aged WT mice, HFI-419 4 weeks, FIG. 20b) is reported as “significant improvement”. The “recovery of LV±dP/dt in latter stages of reperfusion” value ([1]; evident from 20 min of reperfusion, aged WT mice, HFI-419 4 weeks, FIG. 20c,d) was “significant improvement”, the “HR, LVDP or LVEDP at baseline” value ([1]; pre-ischemic baseline, aged WT vehicle vs HFI-419 treated) was “no difference” and the “ICAM-1 expression in heart” value [2, 4] was “reduced”. For the same compound, the “MCP-1 expression in heart” value [2, 4] was “reduced”, the “NFκB activation in heart (phospho-IκBα)” value [2, 4] was “diminished” and the “macrophage expression in heart” value [2, 4] was “reduced”. For the same compound, the “superoxide production in heart (DHE)” value [2, 4] was “diminished”, the “MMP-2 protein level in heart” value [2, 5] was “no change” and the “MMP-8 protein expression in heart” value [2, 5] was “trend towards increased”. For the same compound, the “MMP-9 protein level in heart” value [2, 5] was “no change”, the “MMP-13 protein level in heart” value [2, 5] was “no change” and the “TIMP-1 protein levels in heart” value [2, 5] was “significantly decreased”. The “precursor and mature forms of collagen α1 Type I in heart (western blot)” value [2, 5] was “markedly reduced”, the “TGF-β1 expression in heart” value [2, 6] was “downregulation” and the “synthetic myofibroblasts (α-SMA) in heart” value [2, 6] was “downregulation”. For the same compound, the “IRAP expression in heart” value ([2]; ~20 month old WT mice, HFI-419 500 ng/kg/min s.c., 4 weeks, FIG. 8c) was “significantly decreased”, the “age-induced cardiac collagen deposition (picrosirius red)” value ([2]; ~20 month old WT mice, HFI-419 500 ng/kg/min s.c., 4 weeks, FIGS. 15, 16) was “reversed age-induced collagen deposition to the same level seen in young adult mice” and the “systolic blood pressure, SBP” value ([3]; chronic (4 week) HFI-419, FIG. 16a) was “no significant effect”. For the same compound, the body weight ([3]; chronic (4 week) HFI-419, FIG. 16b) was “no significant effect”, the “ventricular weight to body weight ratio, VW:BW” value ([3]; chronic (4 week) HFI-419, FIG. 16c) was “no significant effect” and the “cardiomyocyte cross-sectional area (H&E)” value ([3]; chronic (4 week) HFI-419, FIG. 16e) was “no effect”. For the same compound, the “ventricular weight to tibial length ratio, VW:TL” value ([3]; chronic (4 week) HFI-419, FIG. 16d) was “no significant effect”.
